This series can be described thus: Molar enthalpy of transition or fusion. The note with it: Crystal; Adiabatic calorimetry.

± gives the expanded uncertainty stated by the source.

For `CC(C)(C)Cc1ccccc1` [(2,2-dimethylpropyl)benzene], the “Molar enthalpy of transition or fusion” value turned out to be 15.38 ± 0.1 kJ/mol.
